Consider one molecule from patent US20200123104A1, “PHARMACEUTICAL AGENT THAT BINDS THE P2X7 RECEPTOR” (Indiana University Research and Technology Corporation, priority 2017, published 2020).

For series [1], the target named is T1, P2X7 receptor (Homo sapiens, UniProt Q99572).
T1 sequence (Q99572 1-595): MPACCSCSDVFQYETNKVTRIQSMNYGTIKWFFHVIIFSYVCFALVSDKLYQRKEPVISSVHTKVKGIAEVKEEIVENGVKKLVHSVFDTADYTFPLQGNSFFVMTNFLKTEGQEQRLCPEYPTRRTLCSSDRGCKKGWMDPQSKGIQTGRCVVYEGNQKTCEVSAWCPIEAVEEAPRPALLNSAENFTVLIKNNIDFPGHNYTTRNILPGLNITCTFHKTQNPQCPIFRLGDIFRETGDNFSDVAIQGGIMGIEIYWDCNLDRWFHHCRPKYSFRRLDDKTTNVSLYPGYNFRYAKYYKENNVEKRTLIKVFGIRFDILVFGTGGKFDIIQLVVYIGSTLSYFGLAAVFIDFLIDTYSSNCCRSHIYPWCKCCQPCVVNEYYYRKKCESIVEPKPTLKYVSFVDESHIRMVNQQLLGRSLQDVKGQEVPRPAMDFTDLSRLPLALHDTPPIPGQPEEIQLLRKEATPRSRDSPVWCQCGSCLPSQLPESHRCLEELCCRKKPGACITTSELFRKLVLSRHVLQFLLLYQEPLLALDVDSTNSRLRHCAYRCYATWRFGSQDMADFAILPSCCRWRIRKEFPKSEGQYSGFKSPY
The series can be described thus: Competitive binding with [11C]GSK1482160 as reference tracer, membrane homogenate of HEK cells transfected with the human P2X7 gene. The following applies: HEK-hP2X7 membrane homogenate, [11C]GSK1482160 reference tracer. Also noted: host or cells: HEK (human embryonic kidney) cells, membrane homogenate.
Procedure: Samples and control wells are run in triplicate at each concentration. After equilibrium has been reached, separation of bound from free [^11C]GSK1482160 radioligand is performed using a 96-well filtration apparatus. To estimate receptor association (kon) and dissociation (koff) rates, an association/dissociation kinetic experiment is performed. Association is measured as a function of time using cell membrane homogenate from HEK-P2X7 cells incubated with 2-4 concentrations of the ^18F-radioligand. Dissociation is measured in the presence of excess authentic standard once at steady state according to published methods. Radioactivity for both studies is measured on the filters (or filter plates) using a Perkin-Elmer TopCount Data is analyzed and plotted using GraphPad Prism to obtain Bmax and Kd values for the compound.

Series [2] addresses T1, P2X7 receptor. The note with it: read-out: P2X7 receptor affinity (KB) (converted); cited from earlier work.
In series [3] the target is T2, human P2X7R (HEK293-hP2X7R) (Homo sapiens, UniProt Q99572).
T2 construct: expressed in transfected cells; host or cells: HEK293
T2 sequence (Q99572 1-595): T1 sequence (Q99572 1-595)
Put plainly: Saturation and kinetic radioligand binding of 11C-GSK1482160 to HEK293-hP2X7R.
Procedure: Receptor density (Bmax) is determined by a saturation approach as employed with each P2X7-receptor ligand employing [^11C]GSK1482160 as a convenient reference ligand that is expected to bind in the same region of the receptor. […] Samples and control wells are run in triplicate at each concentration. After equilibrium has been reached, separation of bound from free [^11C]GSK1482160 radioligand is performed using a 96-well filtration apparatus. To estimate receptor association (kon) and dissociation (koff) rates, an association/dissociation kinetic experiment is performed. Association is measured as a function of time using cell membrane homogenate from HEK-P2X7 cells incubated with 2-4 concentrations of the ^18F-radioligand. Dissociation is measured in the presence of excess authentic standard once at steady state according to published methods. Radioactivity for both studies is measured on the filters (or filter plates) using a Perkin-Elmer TopCount Data is analyzed and plotted using GraphPad Prism to obtain Bmax and Kd values for the compound.

The conditions of series [4]: in vivo; cited from earlier work.

SMILES strings stand for the structures. Where “and” joins values, the source holds several entries; their conditions need not be identical. Identical values can stand only once.

As usually defined, the Ki is a dissociation constant, usually derived from enzyme kinetics or from competition with a known ligand. Low readings indicate higher affinity, high ones lower affinity. The koff is a measure of how fast the partners let go of each other. At P2X7 receptor [1], `[11CH3]N1C(=O)CC[C@H]1C(=O)NCc1cccc(C(F)(F)F)c1Cl` [[^11C]GSK1482160] displayed a Ki of 5.14 ± 0.85 nM. Also, on P2X7 receptor [2], the Kb was 95.9 nM and 95 nM. Moreover, the Kd in series [3] (read-out: K) came out at 1.15 ± 0.12 nM. In addition, the koff in series [3] (read-out: dissociation constant koff (converted)) was 0.00425 s⁻¹. Also, the “crossing of the blood-brain barrier” value in series [4] was “readily crosses the blood-brain barrier”.
